The source of these data is US20250049937A1, “NOVEL AURISTATIN ANALOGS AND IMMUNOCONJUGATES THEREOF” (priority 2021, published 2025).

The assay deals with HCC1954 breast ductal carcinoma cells. In words: HCC1954 5-day cell viability assay (Cell Titer Glo 2.0). Conditions: Homo sapiens, HCC1954, 120 h, read-out: IC50 (HCC1954 5-Day Assay). In kind it is cell-based. On the procedure: (§1) *Biological assay protocol: HCC1954 breast ductal carcinoma or SK-BR-3 cells (ATCC, Manassas, VA, USA) were seeded into 384-well white-walled culture plates and allowed to adhere for 2-4 hours. Cells were then treated with test articles at least in duplicate by addition of 5-fold serially diluted test articles prepared at 2× final concentration and incubated at 37° C. for 120 hours. Cell viability following treatment was determined by Cell Titer Glo 2.0 Assay (Promega, Madison, WI, USA) and normalized to non-treated controls. Dose-response relationships were analyzed using GraphPad Prism (La Jolla, CA, USA), and IC50 values were derived from non-linear regression analyses using a 4-parameter logistic equation
as §1, with “HCC1954” for “*Biological assay protocol: HCC1954”, “carcinoma” for “carcinoma or SK-BR-3”, “treated” for “treated with test articles”, “equation.” for “equation”
(In general: In ATP-based viability assays light output follows the ATP content of the culture.)

As usually defined, the IC50 is the concentration at which inhibition is half-maximal.

In the case of `CC[C@H](C)[C@@H]([C@@H](CC(=O)N1CCC[C@H]1[C@H](OC)[C@@H](C)C(=O)N[C@H](CC#N)Cc1ccc(N)cc1)OC)N(C)C(=O)[C@@H](NC(=O)[C@H](C(C)C)N(C)C)C(C)C` [Compound 1, (S)—N-((3R,4S,5S)-1-((S)-2-((1R,2R)-3-(((S)-1-(4-aminophenyl)-3-cyanopropan-2-yl)amino)-1-methoxy-2-methyl-3-oxopropyl)pyrrolidin-1-yl)-3-methoxy-5-methyl-1-oxoheptan-4-yl)-2-((S)-2-(dimethylamino)-3-methylbutanamido)-N,3-dimethylbutanamide], the half-maximal inhibitory concentration (IC50) was 0.31 nM.

`CC[C@H](C)[C@@H]([C@@H](CC(=O)N1CCC[C@H]1[C@H](OC)[C@@H](C)C(=O)N[C@H](CC#N)Cc1cccc(N)c1)OC)N(C)C(=O)[C@@H](NC(=O)[C@H](C(C)C)N(C)C)C(C)C` [Compound 2, (S)—N-((3R,4S,5S)-1-((S)-2-((1R,2R)-3-(((S)-1-(3-aminophenyl)-3-cyanopropan-2-yl)amino)-1-methoxy-2-methyl-3-oxopropyl)pyrrolidin-1-yl)-3-methoxy-5-methyl-1-oxoheptan-4-yl)-2-((S)-2-(dimethylamino)-3-methylbutanamido)-N,3-dimethylbutanamide]: the IC50 was 0.37 nM.

Turning to `CC[C@H](C)[C@@H]([C@@H](CC(=O)N1CCC[C@H]1[C@H](OC)[C@@H](C)C(=O)N[C@H](CC#N)Cc1cccc(N)c1)OC)N(C)C(=O)[C@@H](NC(=O)[C@@H](C(C)C)N(C)C)C(C)C` [Compound 3, (S)—N-((3R,4S,5S)-1-((S)-2-((1R,2R)-3-(((S)-1-(3-aminophenyl)-3-cyanopropan-2-yl)amino)-1-methoxy-2-methyl-3-oxopropyl)pyrrolidin-1-yl)-3-methoxy-5-methyl-1-oxoheptan-4-yl)-2-((R)-2-(dimethylamino)-3-methylbutanamido)-N,3-dimethylbutanamide], the IC50 amounted to 0.12 nM.

On to `CC[C@H](C)[C@@H]([C@@H](CC(=O)N1CCC[C@H]1[C@H](OC)[C@@H](C)C(=O)N[C@H](CC#N)Cc1cccc(N)c1)OC)N(C)C(=O)[C@@H](NC(=O)[C@H](C)N(C)C)C(C)C` [Compound 4, (S)—N-((3R,4S,5S)-1-((S)-2-((1R,2R)-3-(((S)-1-(3-aminophenyl)-3-cyanopropan-2-yl)amino)-1-methoxy-2-methyl-3-oxopropyl)pyrrolidin-1-yl)-3-methoxy-5-methyl-1-oxoheptan-4-yl)-2-((S)-2-(dimethylamino)propanamido)-N,3-dimethylbutanamide], for which the IC50 was 0.49 nM.

In the case of `CC[C@H](C)[C@@H]([C@@H](CC(=O)N1CCC[C@H]1[C@H](OC)[C@@H](C)C(=O)N[C@H](CC#N)Cc1cccc(N)c1)OC)N(C)C(=O)[C@@H](NC(=O)[C@@H](C)N(C)C)C(C)C` [Compound 5, (S)—N-((3R,4S,5S)-1-((S)-2-((1R,2R)-3-(((S)-1-(3-aminophenyl)-3-cyanopropan-2-yl)amino)-1-methoxy-2-methyl-3-oxopropyl)pyrrolidin-1-yl)-3-methoxy-5-methyl-1-oxoheptan-4-yl)-2-((R)-2-(dimethylamino)propanamido)-N,3-dimethylbutanamide], the IC50 was determined as 0.37 nM.

With `CC[C@H](C)[C@@H]([C@@H](CC(=O)N1CCC[C@H]1[C@H](OC)[C@@H](C)C(=O)N[C@H](CC#N)Cc1cccc(N)c1)OC)N(C)C(=O)[C@@H](NC(=O)CN(C)C)C(C)C` [Compound 6, (S)—N-((3R,4S,5S)-1-((S)-2-((1R,2R)-3-(((S)-1-(3-aminophenyl)-3-cyanopropan-2-yl)amino)-1-methoxy-2-methyl-3-oxopropyl)pyrrolidin-1-yl)-3-methoxy-5-methyl-1-oxoheptan-4-yl)-2-(2-(dimethylamino)acetamido)-N,3-dimethylbutanamide], the IC50 was determined as 0.78 nM.

On to `CC[C@H](C)[C@@H]([C@@H](CC(=O)N1CCC[C@H]1[C@H](OC)[C@@H](C)C(=O)N(C)[C@H](CC#N)Cc1cccc(N)c1)OC)N(C)C(=O)[C@@H](NC(=O)[C@H](C(C)C)N(C)C)C(C)C` [Compound 7, (S)—N-((3R,4S,5S)-1-((S)-2-((1R,2R)-3-(((S)-1-(3-aminophenyl)-3-cyanopropan-2-yl)(methyl)amino)-1-methoxy-2-methyl-3-oxopropyl)pyrrolidin-1-yl)-3-methoxy-5-methyl-1-oxoheptan-4-yl)-2-((S)-2-(dimethylamino)-3-methylbutanamido)-N,3-dimethylbutanamide], for which the IC50 was determined as 0.07 nM.

As to `CC[C@H](C)[C@@H]([C@@H](CC(=O)N1CCC[C@H]1[C@H](OC)[C@@H](C)C(=O)N(C)[C@H](CC#N)Cc1cccc(N)c1)OC)N(C)C(=O)[C@@H](NC(=O)[C@H](C)N(C)C)C(C)C` [Compound 8, (S)—N-((3R,4S,5S)-1-((S)-2-((1R,2R)-3-(((S)-1-(3-aminophenyl)-3-cyanopropan-2-yl)(methyl)amino)-1-methoxy-2-methyl-3-oxopropyl)pyrrolidin-1-yl)-3-methoxy-5-methyl-1-oxoheptan-4-yl)-2-((S)-2-(dimethylamino)propanamido)-N,3-dimethylbutanamide], the IC50 worked out at 0.22 nM.

In the case of `CC[C@H](C)[C@@H]([C@@H](CC(=O)N1CCC[C@H]1[C@H](OC)[C@@H](C)C(=O)N(C)[C@H](CC#N)Cc1cccc(N)c1)OC)N(C)C(=O)[C@@H](NC(=O)[C@@H](C)N(C)C)C(C)C` [Compound 9, (S)—N-((3R,4S,5S)-1-((S)-2-((1R,2R)-3-(((S)-1-(3-aminophenyl)-3-cyanopropan-2-yl)(methyl)amino)-1-methoxy-2-methyl-3-oxopropyl)pyrrolidin-1-yl)-3-methoxy-5-methyl-1-oxoheptan-4-yl)-2-((R)-2-(dimethylamino)propanamido)-N,3-dimethylbutanamide], the IC50 is 0.58 nM.
